Reference: BindingDB's records for patent US20250340565 (AdoRx Therapeutics, 2025)

Target: T1, 5'-nucleotidase [27-547] (UniProt P21589)
T1 construct: 27-547
T1 sequence (P21589 whole entry): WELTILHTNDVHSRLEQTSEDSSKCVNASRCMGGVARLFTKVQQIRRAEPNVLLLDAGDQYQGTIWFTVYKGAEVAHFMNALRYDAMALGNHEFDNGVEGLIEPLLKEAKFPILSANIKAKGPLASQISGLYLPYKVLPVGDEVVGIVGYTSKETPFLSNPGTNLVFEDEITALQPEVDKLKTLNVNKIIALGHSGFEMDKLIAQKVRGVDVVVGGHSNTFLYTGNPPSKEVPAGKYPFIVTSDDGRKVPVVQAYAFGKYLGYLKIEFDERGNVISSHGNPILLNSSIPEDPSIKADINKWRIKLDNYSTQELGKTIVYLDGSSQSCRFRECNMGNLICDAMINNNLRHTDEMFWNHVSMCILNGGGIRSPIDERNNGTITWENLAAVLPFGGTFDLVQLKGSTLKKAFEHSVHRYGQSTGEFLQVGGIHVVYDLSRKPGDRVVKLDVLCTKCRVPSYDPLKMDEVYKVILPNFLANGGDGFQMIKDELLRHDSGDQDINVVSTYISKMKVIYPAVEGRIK
Test: CD73 Inhibition Assay
Procedure: Compound inhibition of human (h)CD73 (amino acids Trp27-Lys547, R&D Systems 5795-EN-500) enzymatic activity was tested via the Malachite Green Phosphate Detection Kit (R&D DY996). Experiments were performed in 20 μL Tris buffer (25 mM Tris pH 7.5, 5 mM MgCl2, 0.002% Tween20), with 250 pM of hCD73. Test compounds of interest were prepared in a threefold serial dilution in DMSO and added to the assay to give the appropriate final concentration, with the assay DMSO concentration being 1%. Compounds were pre-incubated for 20 minutes with hCD73 in a 384 well clear plate (Greiner 781101), followed by the addition of adenosine monophosphate (AMP) to 12.5 μM. The enzymatic reaction was carried out for 20 min at room temperature. 5 μL of Malachite kit reagent A was added to stop the reaction (contains 3M H2SO4) and after 10 min, 5 μL of Malachite kit reagent B was added (Malachite Green). After 30 min, absorbance at 620 nm was read on a BMG Pherastar FSX.

## O=c1[nH]cc(-n2cc3c(N4C[C@@H]5COC[C@H]5C4)ncnc3n2)c(=O)[nH]1 [US20250340565, Example 13.10]
  IC50: 0.898 µM
